Test results reported in patent US20240294551A1 (AMGEN INC., priority 2022, published 2024).
Like-named read-outs stand apart in the source and are kept apart here.

Key:
[1] = molecular target: His-tagged KRAS G12D protein (Homo sapiens (Human), UniProt P01116, G12D); assay: KRAS G12D TR-FRET Assay; type: binding
Procedure, shortened: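 Each incubation ran at room temperature: enzyme with compound for 30 minutes, peptide for one hour, and detection reagents (0.4 nM europium anti-6×His, 5 nM streptavidin-d2) for one hour more. Protein and peptide stocks were each diluted to 20 nM before addition.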

[2] = molecular target: GDP-bound KRAS protein (aa 1-169), containing both G12D and C118A amino acid substitutions (Homo sapiens (Human), UniProt P01116, C118A/G12D); assay: KRAS G12D Coupled Nucleotide Exchange Assay; type: biochemical
Chain of GDP-bound KRAS protein (aa 1-169), containing both G12D and C118A amino acid substitutions (P01116 other isoform, or with tags, fused parts or gaps G12D/C118A): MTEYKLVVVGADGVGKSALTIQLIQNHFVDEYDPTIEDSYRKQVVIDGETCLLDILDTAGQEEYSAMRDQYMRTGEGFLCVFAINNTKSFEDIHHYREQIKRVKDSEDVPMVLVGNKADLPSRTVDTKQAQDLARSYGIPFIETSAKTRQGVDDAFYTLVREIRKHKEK

[3] = tested on: Phosphorylation of ERK1/2 in AsPC-1 cells; assay: Phospho-ERK1/2 MSD Assay; type: cell-based, human
Procedure, shortened: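 Read-out: MSD electrochemiluminescent detection of phosphorylated ERK1/2 in whole-cell lysates, fitted to a 4-parameter logistic curve for IC50. Prior to lysis, AsPC-1 cells (25,000 per well) received a 2 h compound dose-response at 37 °C.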

AsPC-1 cells = assay: AsPC-1 CTG Assay (CellTiter-Glo cell viability); type: cell-based, human; settings: first value of the cell, read-out: G12D/C/V Cell Proliferation CTG (72 h) AsPC-1
Protocol: AsPC-1 and SW620 CTG Assay Protocols
AsPC-1 (human pancreatic adenocarcinoma; ATCC CRL-1682) or SW620 (human colon adenocarcinoma; ATCC CCL-227) cells were cultured in RPMI 1640 medium containing 10% fetal bovine serum and 1× penicillin/streptomycin/L-glutamine. Cells were seeded in 384-well plates at a density of 3.33E+04 cells/mL and incubated at 37° C., 5% CO2, overnight. Serially-diluted compound or DMSO was added to the cells, and plates were incubated at 37° C., 5% CO2 for 72 h. Cell viability was measured using a CellTiter-Glo® Luminescent Cell Viability Assay kit (Promega) according to the manufacturer's protocol. The luminescence signal of treated samples was normalized to DMSO control, and data were analyzed using a 4-parameter logistic model to calculate IC50 values.

[4] = read-out: KRAS G12D Binding IC50
[5] = read-out: KRAS G12D Coupled Exchange IC50
[6] = 2 h, read-out: 2 h p-ERK (AsPC-1 cells), IC50
[7] = Homo sapiens, ASPC1, 2 h, read-out: 2 h p-ERK (AsPC-1 cells), IC50
[8] = Homo sapiens, ASPC1, 72 h, AsPC-1, 72 h
[9] = TR-FRET, read-out: KRAS G12D Binding
[10] = 2 hours compound pre-incubation, read-out: KRAS G12D Coupled Exchange
[11] = Homo sapiens, ASPC1, 2 h, read-out: 2 h p-ERK (AsPC-1 cells)
[12] = Homo sapiens, ASPC1, 72 h, AsPC-1 cells (G12D), 72 h

Chain of His-tagged KRAS G12D protein (P01116 other isoform, or with tags, fused parts or gaps G12D): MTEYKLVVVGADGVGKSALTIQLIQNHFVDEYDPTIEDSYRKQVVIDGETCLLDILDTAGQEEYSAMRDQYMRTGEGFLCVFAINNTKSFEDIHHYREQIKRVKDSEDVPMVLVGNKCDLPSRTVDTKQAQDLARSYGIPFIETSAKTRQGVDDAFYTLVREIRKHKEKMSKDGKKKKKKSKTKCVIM

Row | IC50 [1, 4] | IC50 [2, 5] | IC50 [3, 6] | IC50 (AsPC-1 cells; AsPC-1, 72 h) | IC50 [3, 7] | IC50 (AsPC-1 cells; [8]) | IC50 [1, 9] | IC50 [2, 10] | IC50 [3, 11] | IC50 (AsPC-1 cells; [12]) | SMILES
1 | 10 nM | 6 nM | 65.5 nM | 889 nM | – | – | – | – | – | – | Cc1c2ncc3c(nc(OC[C@@]45CCCN4C[C@H](F)C5)nc13)N1CCOC[C@H](C1)OC(=O)OCCCc1c(Cl)cc3[nH]ncc3c1-2 (atropisomer, axis not shown) [Example 341, (26S)-18-chloro-4-(((2R,7aS)-2-fluorotetrahydro-1H-pyrrolo[1,2-a]pyrrol-7a(5H)-yl)methoxy)-32-methyl-23,25,28-trioxa-1,3,5,9,14,15-hexaazahexacyclo[24.4.1.1~6,10~.0~2,7~.0~11,19~.0~12,16~]dotriaconta-2,4,6,8,10(32),11,13,16,18-nonaen-24-one]
2 | 4 nM | 1 nM | – | – | 29 nM | 270 nM | – | – | – | – | Cc1cc2[nH]ncc2c2c1CCCC(=O)OC[C@@H]1CCCN(C1)c1nc(OC[C@@]34CCCN3C[C@H](F)C4)nc3c(F)c-2ncc13 [Example 106]
3 | 7 nM | 3 nM | – | – | 77 nM | 670 nM | – | – | – | – | Fc1c2ncc3c(nc(OC[C@@]45CCCN4C[C@H](F)C5)nc13)N1CCOC[C@H](COCCCCc3c(Cl)cc4[nH]ncc4c3-2)C1 (single isomer, unassigned) [Example 136]
4 | 5 nM | 2 nM | – | – | 13.4 nM | 297 nM | – | – | – | – | C[C@@]12COCCN(C1)c1nc(OC[C@@]34CCCN3C[C@H](F)C4)nc3cc(ncc13)-c1c(c(Cl)cc3[nH]ncc13)CCCOC(=O)O2 [Example 346, (26S)-18-chloro-4-(((2R,7aS)-2-fluorotetrahydro-1H-pyrrolo[1,2-a]pyrrol-7a(5H)-yl)methoxy)-26-methyl-23,25,28-trioxa-1,3,5,9,14,15-hexaazahexacyclo[24.4.1.1~6,10~.0~2,7~.0~11,19~.0~12,16~]dotriaconta-2,4,6(32),7,9,11,13,16,18-nonaen-24-one]
5 | 5 nM | 3 nM | – | – | 29 nM | 50 nM | – | – | – | – | C[C@@H]1C[C@@H](COc2nc3c4cnc(c(F)c4n2)-c2c(c(Cl)cc4[nH]ncc24)CCCOC(=O)O[C@@H]2COCCN3C2)N(C)C1 [Example 328, (26S)-18-chloro-4-(((2S,4R)-1,4-dimethyl-2-pyrrolidinyl)methoxy)-32-fluoro-23,25,28-trioxa-1,3,5,9,14,15-hexaazahexacyclo[24.4.1.1~6,10~.0~2,7~.0~11,19~.0~12,16~]dotriaconta-2,4,6(32),7,9,11,13,16,18-nonaen-24-one]
6 | 30 nM | 21 nM | 467 nM | 5000 nM | – | – | – | – | – | – | O[C@@H]1C[C@@H]2CN(C1)c1nc(OC[C@@]34CCCN3C[C@H](F)C4)nc3c(F)c(ncc13)-c1c(c(Cl)cc3[nH]ncc13)CCCn1ncc2n1 (single isomer, unassigned) [Example 299]
7 | – | – | – | – | – | – | 27 nM | 15 nM | 673 nM | 3120 nM | Fc1c2ncc3c(nc(OC[C@@]45CCCN4C[C@H](F)C5)nc13)N1CCOC[C@H](Cc3ncc(o3)CCc3c(Cl)cc4[nH]ncc4c3-2)C1 (single isomer, unassigned) [Example 375]
8 | 6 nM | 3 nM | – | – | 135 nM | 1640 nM | – | – | – | – | Cc1cc2[nH]ncc2c2c1CCCCC(=O)N[C@@H]1CCCCN(C1)c1nc(OC[C@@]34CCCN3C[C@H](F)C4)nc3c(F)c-2ncc13 [Example 54, (26R)-32-fluoro-4-(((2R,7aS)-2-fluorotetrahydro-1H-pyrrolo[1,2-a]pyrrol-7a(5H)-yl)methoxy)-18-methyl-1,3,5,9,14,15,25-heptaazahexacyclo[24.4.1.1~6,10~.0~2,7~.0~11,19~.0~12,16~]dotriaconta-2,4,6,8,10(32),11,13,16,18-nonaen-24-one]
9 | 7 nM | 3 nM | – | – | 133 nM | 1190 nM | – | – | – | – | O=C1N[C@@H]2CC[C@H](O)CN(C2)c2nc(OC[C@@]34CCCN3C[C@H](F)C4)nc3c(F)c(ncc23)-c2c(c(Cl)cc3[nH]ncc23)CCCO1 (racemic) [Example 282, (26R,29S)-18-chloro-32-fluoro-4-(((2R,7aS)-2-fluorotetrahydro-1H-pyrrolo[1,2-a]pyrrol-7a(5H)-yl)methoxy)-29-hydroxy-23-oxa-1,3,5,9,14,15,25-heptaazahexacyclo[24.4.1.1~6,10~.0~2,7~.0~11,19~.0~12,16~]dotriaconta-2,4,6(32),7,9,11,13,16,18-nonaen-24-one]
10 | – | – | – | – | – | – | 5 nM | 3 nM | 289 nM | 386 nM | CN(C)CC1(COc2nc3c4cnc(c(F)c4n2)-c2c(c(Cl)cc4[nH]ncc24)CCCCOCC2(F)CCCCN3C2)CC1 (stereo in doubt) [Example 401, 1-(1-((((26S)-18-chloro-26,32-difluoro-24-oxa-1,3,5,9,14,15-hexaazahexacyclo[24.4.1.1~6,10~.0~2,7~.0~11,19~.0~12,16~]dotriaconta-2,4,6,8,10(32),11,13,16,18-nonaen-4-yl)oxy)methyl)cyclopropyl)-N,N-dimethylmethanamine]
11 | 46 nM | 15 nM | – | – | 4.9 nM | 5 nM | – | – | – | – | CC(=O)n1ncc2c3c(c(Cl)cc21)CCCOC(=O)O[C@@H]1COCCN(C1)c1nc(OC[C@@]24CCCN2C[C@H](F)C4)nc2c(F)c-3ncc12 [Example 213, (26S)-15-Acetyl-18-chloro-32-fluoro-4-(((2R,7aS)-2-fluorotetrahydro-1H-pyrrolo[1,2-a]pyrrol-7a(5H)-yl)methoxy)-23,25,28-trioxa-1,3,5,9,14,15-hexaazahexacyclo[24.4.1.1˜6,10˜.0˜2,7˜.0˜11,19˜.0˜12,16˜]dotriaconta-2,4,6(32),7,9,11,13,16,18-nonaen-24-one]
12 | 10 nM | 7 nM | – | – | 236 nM | 3100 nM | – | – | – | – | O=C1CCCCc2c(Cl)cc3[nH]ncc3c2-c2ncc3c(nc(OC[C@@]45CCCN4C[C@H](F)C5)nc3c2F)N2CCC3CN1[C@H]3C2 (mixture of isomers) [Example 164]
13 | 15 nM | 9 nM | – | – | 820 nM | 1710 nM | – | – | – | – | CC12CCCN(C1)c1nc(OC[C@@]34CCCN3C[C@H](F)C4)nc3c(F)c(ncc13)-c1cccc3ccc(F)c(c13)CCOC(=O)N2 (mixture of isomers) [Example 76]
14 | 44 nM | 20 nM | – | – | 1590 nM | 5000 nM | – | – | – | – | CN1C(=O)CCCc2c(F)ccc3cccc(c23)-c2ncc3c(nc(OC[C@@]45CCCN4C[C@H](F)C5)nc3c2F)N2CCC[C@]1(C)C2 [Example 167, (15R)-22,31-difluoro-8-(((2R,7aS)-2-fluorotetrahydro-1H-pyrrolo[1,2-a]pyrrol-7a(5H)-yl)methoxy)-15,16-dimethyl-3,7,9,11,16-pentaazahexacyclo[19.7.1.1~2,6~.1~11,15~.0~5,10~.0~25,29~]hentriaconta-1(29),2(31),3,5,7,9,21,23,25,27-decaen-17-one]
15 | 5 nM | 3 nM | – | – | 60.5 nM | 954 nM | – | – | – | – | O=C1N[C@@H]2CCCCN(C2)c2nc(OC[C@@]34CCCN3C[C@H](F)C4)nc3c(F)c(ncc23)-c2c3c(cc4[nH]ncc24)CC[C@H]3CCO1 [Example 301, (16R,22S)-34-fluoro-8-(((2R,7aS)-2-fluorotetrahydro-1H-pyrrolo[1,2-a]pyrrol-7a(5H)-yl)methoxy)-19-oxa-3,7,9,11,17,28,29-heptaazaheptacyclo[20.9.1.1~2,6~.1~11,16~.0~5,10~.0~25,32~.0~27,31~]tetratriaconta-1(31),2(34),3,5,7,9,25(32),26,29-nonaen-18-one]
